Measured values published in patent US11603377B2, “MTORC1 modulators and uses thereof” (Aeovian Pharmaceuticals, Inc., priority 2020, dated 2023).
pIC50, pKd: −log10 of the molar value.

Legend:
mTORC1 = mTORC1 (Homo sapiens (Human), UniProt P42345+P62942); test: mTORC1 inhibition, AlphaLISA of Phospho-p70 S6 kinase (p70S6K pT389) in PC-3 cells; assay type: cell-based; details: inhibition of p70S6K pT389 levels
FKBP12 = FKBP12 (Homo sapiens (Human), UniProt P62942); test: SPR assay to determine binding affinity to FKBP12 (direct binding); details: immobilized biotinylated avi-FKBP12
Sequence of FKBP12 (P62942 whole entry): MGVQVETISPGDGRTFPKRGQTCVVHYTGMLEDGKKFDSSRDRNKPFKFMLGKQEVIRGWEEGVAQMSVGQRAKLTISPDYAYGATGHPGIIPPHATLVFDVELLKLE

[1] = biological target: FKBP51 / FRB ternary complex (Homo sapiens (Human), UniProt P42345+Q13451); test: SPR assay to characterize ternary complex formation with FKBP51 (FRB binding to rapalog-saturated FKBP51); details: FRB dilutions with 100 nM rapalog on immobilized FKBP51
In short: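 SPR with biotinylated avi-FKBP51 on streptavidin chip (~200 RU); FRB (0.00011-20 μM, 3-fold series) injected with 100 nM rapalog, A-B-A mode keeping FKBP saturated with rapalog.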

FKBP51 = FKBP51 (Homo sapiens (Human), UniProt Q13451); test: SPR assay to determine binding affinity to FKBP51 (direct binding); details: immobilized biotinylated avi-FKBP51
Sequence of FKBP51 (Q13451 whole entry): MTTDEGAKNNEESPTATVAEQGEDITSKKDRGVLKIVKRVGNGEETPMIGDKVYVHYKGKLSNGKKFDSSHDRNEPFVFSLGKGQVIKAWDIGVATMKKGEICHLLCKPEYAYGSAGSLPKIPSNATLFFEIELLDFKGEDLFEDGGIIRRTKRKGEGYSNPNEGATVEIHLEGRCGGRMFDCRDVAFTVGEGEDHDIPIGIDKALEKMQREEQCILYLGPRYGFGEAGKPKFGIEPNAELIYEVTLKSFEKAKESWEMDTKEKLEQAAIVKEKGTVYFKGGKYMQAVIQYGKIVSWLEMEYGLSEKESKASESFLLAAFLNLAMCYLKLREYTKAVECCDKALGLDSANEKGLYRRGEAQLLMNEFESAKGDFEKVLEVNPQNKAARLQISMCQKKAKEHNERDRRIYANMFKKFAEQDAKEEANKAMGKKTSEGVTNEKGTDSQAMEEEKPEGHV
In short: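 Biotinylated avi-FKBP51 captured on streptavidin chip to about 2000 RU. Compounds injected at 0.5-1000 nM (8 points, 3-fold) for 120 s contact and 3600 s dissociation in 50 mM HEPES pH 7.5, 150 mM NaCl, 2 mM MgCl2, 1 mM DTT, 0.05% Tween-20, 1% DMSO.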

[2] = biological target: FKBP12 / FRB ternary complex (Homo sapiens (Human), UniProt P42345+P62942); test: SPR assay to characterize ternary complex formation with FKBP12 (FRB binding to rapalog-saturated FKBP12); details: FRB dilutions with 100 nM rapalog on immobilized FKBP12
In short: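 Biotinylated avi-FKBP12 immobilized (~100 RU) on streptavidin chip; A-B-A injections kept FKBP12 saturated with 100 nM rapalog while FRB (0.00011–20 μM, 3-fold, 12 points) was injected 120 s.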

mTORC2 = mTORC2 (Homo sapiens (Human), UniProt P42345+P62942); test: mTORC2 inhibition, AlphaLISA of Phospho-AKT (pAKT pS473) in PC3 cells; assay type: cell-based

Row | Compound | pIC50 (mTORC1) | pKd (FKBP12) | pKd [1] | pKd (FKBP51) | pKd [2] | mTORC2 % inhibition at 1 uM (mTORC2)
1 | COC1CC(CC(C)C2CC(=O)C(C)C=C(C)C(O)C(OC)C(=O)C(C)CC(C)C=CC=CC=C(C)C(OCCC3COC3)CC3CCC(C)C(O)(O3)C(=O)C(=O)N3CCCCC3C(=O)O2)CCC1OCCO (stereo not drawn) [Compound 38] | 9.10 to 10.00 | 9.00 to 9.52 | < 6.10 | 7.00 to 8.00 | < 6.10 | A (A ≤20% inhibition at 1 micro Molar (uM))
2 | COC1CC(CC(C)C2CC(=O)C(C)C=C(C)C(O)C(OC)C(=O)C(C)CC(C)C=CC=CC=C(C)C(OCC3CC3)CC3CCC(C)C(O)(O3)C(=O)C(=O)N3CCCCC3C(=O)O2)CCC1O (stereo not drawn) [Compound 39] | 9.10 to 10.00 | 9.00 to 9.52 | < 6.10 | < 7.00 | 6.10 to 6.52 | B (B>20% and less than 40% inhibition at 1 uM)
3 | COC1CC(CC(C)C2CC(=O)C(C)C=C(C)C(O)C(OC)C(=O)C(C)CC(C)C=CC=CC=C(C)C(OCC3CCCC3)CC3CCC(C)C(O)(O3)C(=O)C(=O)N3CCCCC3C(=O)O2)CCC1O (stereo not drawn) [Compound 40] | 9.10 to 10.00 | < 9.00 | < 6.10 | < 7.00 | 6.10 to 6.52 | A (A ≤20% inhibition at 1 micro Molar (uM))
4 | COC1CC(CC(C)C2CC(=O)C(C)C=C(C)C(O)C(OC)C(=O)C(C)CC(C)C=CC=CC=C(C)C(OCC3CC(F)(F)C3)CC3CCC(C)C(O)(O3)C(=O)C(=O)N3CCCCC3C(=O)O2)CCC1O (stereo not drawn) [Compound 41] | < 9.10 | 9.00 to 9.52 | < 6.10 | < 7.00 | < 6.10 | A (A ≤20% inhibition at 1 micro Molar (uM))
5 | COC1CC(CC(C)C2CC(=O)C(C)C=C(C)C(O)C(OC)C(=O)C(C)CC(C)C=CC=CC=C(C)C(OCC3CC3)CC3CCC(C)C(O)(O3)C(=O)C(=O)N3CCCCC3C(=O)O2)CCC1OCCCO (stereo not drawn) [Compound 42] | < 9.10 | < 9.00 | < 6.10 | < 7.00 | 6.10 to 6.52 | A (A ≤20% inhibition at 1 micro Molar (uM))
6 | COC1CC(CC(C)C2CC(=O)C(C)C=C(C)C(O)C(OC)C(=O)C(C)CC(C)C=CC=CC=C(C)C(OCC3CC3)CC3CCC(C)C(O)(O3)C(=O)C(=O)N3CCCCC3C(=O)O2)CCC1OCCCO (stereo not drawn) [Compound 43] | < 9.10 | < 9.00 | > 6.52 | < 7.00 | > 6.52 | C (C≥40% and less than 60% inhibition at 1 uM)
7 | COC1CC(CC(C)C2CC(=O)C(C)C=C(C)C(O)C(OC)C(=O)C(C)CC(C)C=CC=CC=C(C)C(OCC3CCC3)CC3CCC(C)C(O)(O3)C(=O)C(=O)N3CCCCC3C(=O)O2)CCC1OCCCO (stereo not drawn) [Compound 44] | 9.10 to 10.00 | < 9.00 | < 6.10 | < 7.00 | > 6.52 | C (C≥40% and less than 60% inhibition at 1 uM)
8 | COC1CC(CC(C)C2CC(=O)C(C)C=C(C)C(O)C(OC)C(=O)C(C)CC(C)C=CC=CC=C(C)C(OCC3CCC3)CC3CCC(C)C(O)(O3)C(=O)C(=O)N3CCCCC3C(=O)O2)CCC1OCCO (stereo not drawn) [Compound 45] | < 9.10 | < 9.00 | > 6.52 | < 7.00 | > 6.52 | B (B>20% and less than 40% inhibition at 1 uM)
9 | COC1CC(CC(C)C2CC(=O)C(C)C=C(C)C(O)C(OC)C(=O)C(C)CC(C)C=CC=CC=C(C)C(OC3CC3)CC3CCC(C)C(O)(O3)C(=O)C(=O)N3CCCCC3C(=O)O2)CCC1OCCO (stereo not drawn) [Compound 46] | 9.10 to 10.00 | < 9.00 | 6.10 to 6.52 | < 7.00 | 6.10 to 6.52 | B (B>20% and less than 40% inhibition at 1 uM)
10 | COC1CC(CC(C)C2CC(=O)C(C)C=C(C)C(O)C(OC)C(=O)C(C)CC(C)C=CC=CC=C(C)C(OC3CC3)CC3CCC(C)C(O)(O3)C(=O)C(=O)N3CCCCC3C(=O)O2)CCC1OCCO (stereo not drawn) [Compound 47] | < 9.10 | < 9.00 | < 6.10 | < 7.00 | > 6.52 | B (B>20% and less than 40% inhibition at 1 uM)
11 | CCOC(=O)COC1CCC(CC(C)C2CC(=O)C(C)C=C(C)C(O)C(OC)C(=O)C(C)CC(C)C=CC=CC=C(C)C(OC3CC3)CC3CCC(C)C(O)(O3)C(=O)C(=O)N3CCCCC3C(=O)O2)CC1OC (stereo not drawn) [Compound 48] | < 9.10 | < 9.00 | < 6.10 | < 7.00 | 6.10 to 6.52 | A (A ≤20% inhibition at 1 micro Molar (uM))
12 | CCOC(=O)COC1CCC(CC(C)C2CC(=O)C(C)C=C(C)C(O)C(OC)C(=O)C(C)CC(C)C=CC=CC=C(C)C(OCC3CCC3)CC3CCC(C)C(O)(O3)C(=O)C(=O)N3CCCCC3C(=O)O2)CC1OC (stereo not drawn) [Compound 49] | < 9.10 | > 9.52 | < 6.10 | < 7.00 | 6.10 to 6.52 | B (B>20% and less than 40% inhibition at 1 uM)
13 | CCOC(=O)COC1CCC(CC(C)C2CC(=O)C(C)C=C(C)C(O)C(OC)C(=O)C(C)CC(C)C=CC=CC=C(C)C(OCC3CC3)CC3CCC(C)C(O)(O3)C(=O)C(=O)N3CCCCC3C(=O)O2)CC1OC (stereo not drawn) [Compound 50] | < 9.10 | < 9.00 | < 6.10 | < 7.00 | 6.10 to 6.52 | B (B>20% and less than 40% inhibition at 1 uM)
14 | CCOC(=O)COC1CCC(CC(C)C2CC(=O)C(C)C=C(C)C(O)C(OC)C(=O)C(C)CC(C)C=CC=CC=C(C)C(OCC3CC3)CC3CCC(C)C(O)(O3)C(=O)C(=O)N3CCCCC3C(=O)O2)CC1OC (stereo not drawn) [Compound 51] | < 9.10 | < 9.00 | < 6.10 | < 7.00 | 6.10 to 6.52 | A (A ≤20% inhibition at 1 micro Molar (uM))
15 | COC1CC(CC(C)C2CC(=O)C(C)C=C(C)C(O)C(OC)C(=O)C(C)CC(C)C=CC=CC=C(C)C(OC3CC3)CC3CCC(C)C(O)(O3)C(=O)C(=O)N3CCCCC3C(=O)O2)CCC1OCCCO (stereo not drawn) [Compound 52] | 9.10 to 10.00 | 9.00 to 9.52 | < 6.10 | < 7.00 | > 6.52 | B (B>20% and less than 40% inhibition at 1 uM)
16 | COC1CC(CC(C)C2CC(=O)C(C)C=C(C)C(O)C(OC)C(=O)C(C)CC(C)C=CC=CC=C(C)C(OC3CC3)CC3CCC(C)C(O)(O3)C(=O)C(=O)N3CCCCC3C(=O)O2)CCC1OCCCO (stereo not drawn) [Compound 53] | 9.10 to 10.00 | 9.00 to 9.52 | < 6.10 | < 7.00 | > 6.52 | C (C≥40% and less than 60% inhibition at 1 uM)
17 | COC1CC(CC(C)C2CC(=O)C(C)C=C(C)C(O)C(OC)C(=O)C(C)CC(C)C=CC=CC=C(C)C(OCC3CC3)CC3CCC(C)C(O)(O3)C(=O)C(=O)N3CCCCC3C(=O)O2)CCC1OCCO (stereo not drawn) [Compound 54] | 9.10 to 10.00 | < 9.00 | < 6.10 | < 7.00 | > 6.52 | B (B>20% and less than 40% inhibition at 1 uM)
18 | CO[C@@H]1C[C@H](C[C@@H](C)[C@@H]2CC(=O)[C@H](C)/C=C(\C)[C@H](O)[C@@H](OC)C(=O)[C@H](C)C[C@H](C)/C=C/C=C/C=C(\C)[C@@H](OCCC3COC3)C[C@@H]3CC[C@@H](C)[C@@](O)(O3)C(=O)C(=O)N3CCCC[C@H]3C(=O)O2)CC[C@H]1O [Compound 55] | 9.10 to 10.00 | > 9.52 | < 6.10 | < 7.00 | 6.10 to 6.52 | B (B>20% and less than 40% inhibition at 1 uM)
